Measured values from patent publication US12011474B2, “Composition comprising a mixture of molecules extracted from Chrysanthellum indicum, Cynara scolymus and Lycium barbarum and use to act on carbohydrate and/or fat metabolism” (VALBIOTIS, priority 2015, dated 2024).

Test system: db/db mice
Experiment: Fasting blood glucose in db/db mice
Format: in vivo
Conditions: same db/db model, separate experiment with younger mice, control group 414 mg/dL
From the text: The experiments were done on db/db mice.
The experimental time was 9 weeks with a “Run-in” of 1 week followed by 8 weeks of supplementation with the plant extracts and a composition X. The male mice were 10 weeks old at the beginning of treatment.
The experimental assessments in particular pertained to: • The measurement of the serous lipids (total cholesterol, LDL cholesterol, triglycerides); • The evolution of the blood glucose during an oral sensitivity test to insulin. This test consisted of an intraperitoneal injection of insulin (2 U/kg) on an empty stomach. The evolution of the blood glucose in response to the insulin injection was measured in the tail by biopsy just before the injection (t0), then after 30, 60, 90 and 120 minutes. The area under the curve (AUC) was calculated. A decrease in the AUC reflects a better response to the insulin injection, and therefore improved insulin sensitivity. Conversely, an increase in the AUC reflects a lower quality sensitivity to the insulin, and therefore insulin resistance; • The measurement of the fasting blood glucose.
The evaluations presented were done just before the supplementation (t=0) and at the end of supplementation (t=8 weeks).

With CN(C)C(=N)N=C(N)N [metformin] the Fasting blood glucose was 463 mg/d L and the “Increase of fasting blood glucose versus control group” value was 11%.
